# Laboratory results published in article PMC10794144, “A novel antibiotic class targeting the lipopolysaccharide transporter” (Nature, 2024).
# Read-outs that look alike come from different tables or passages of the source.
# Tested on: P. aeruginosa
# Assay: MIC versus efflux impaired and porin deficient strains
# Format: cell-based, Pseudomonas aeruginosa
# Description: MIC determinations were performed using the broth microdilution method and in line with CLSI guidelines M07 and M100 (refs. [37],[38]). Bacterial inocula were prepared by diluting a 0.5 McFarland suspension in CAMHB or lysogeny broth (LB) specifically for A. baylyi isolates. […] MIC values of all of the tested antibiotics were read as the lowest compound concentration inhibiting bacterial growth by naked eye or beyond which the OD600 ceased to decrease.
smiles,measurement,setting,value
CN1C(=O)[C@H](CCCCN)NC(=O)[C@H](CCCN)NCc2cccnc2Sc2c(Cl)ccc(Cl)c2CNC(=O)[C@@H]1Cc1c[nH]c2ccccc12 [RO7075573],MIC,"P. aeruginosa PAOD1, porin deficient, PAO1 Δ oprD",>64 µg/mL
same,MIC,"Pseudomonas aeruginosa, P. aeruginosa PAO1, WT, read-out: MIC",> 64 µg/mL
same,MIC,"Pseudomonas aeruginosa, P. aeruginosa PAO397, efflux impaired and porin deficient, read-out: MIC",64 µg/mL
